Assay results taken from US20050202522A1, “Method of screening for antimicrobial agents” (NATIONAL INSTITUTE OF ADVANCED INDUSTRIAL SCIENCE AND …, priority 2003, published 2005).

How the values were obtained:
[1] = test system: FFRP pot1216151; test: Gel filtration analysis of changes in assemblies of the FFRP induced by amino acids and metabolic intermediates; format: binding, Pyrococcus sp. OT3; settings: for gel filtration peak that increased: FFRP monomer approximately 100 μM, at least 30 minutes at room temperature, UV 220 nm; for concluded effect on assembling of the protein: gel filtration
Procedure: Changes in assemblies of the FFRP pot1216151 induced by interaction with amino acids and metabolic intermediates were analyzed in solution using gel filtration.
Gel filtration was carried out at a flow rate 1 ml/min, using a matrix (Protein Pak 125, 7.8×300 mm, Waters) and a 50 mM Tris-HCl buffer (pH 7.0) containing 300 mM sodium chloride. Flow of the protein was monitored by measuring the UV absorbance at 220 nm (LC Module I plus system, Waters). The FFRP pot1216151 purified by method 2, i.e., the rigorous method, was dissolved in 50 mM Tris-HCl buffer (pH 7.0) containing 200 mM sodium chloride, and kept at −80° C. until it was diluted by 10-fold with a 50 mM Tris-HCl buffer (pH 7.0) containing 300 mM sodium chloride, and mixed with each potential ligand for at least 30 minutes at room temperature (about 25° C.). In the mixture, the monomer concentration of the FFRP was approximately 100 μM.

[2] = test system: FFRP (pot1216151); test: Changes in crystal structure (depolarization) of FFRP crystals soaked in amino acid solutions; format: binding, Pyrococcus sp. OT3; settings: crystals soaked in solution of one amino acid, 10 mM
Procedure: It has been known that the regularity inside a crystal might be affected, if the structure of the protein changes upon interaction with a ligand which is incorporated from outside the crystal, thereby depolarizing the crystal. Crystals of the FFRP (pot1216151) were soaked into solutions, each containing one of twenty amino acids at the same concentration 10 mM. […] With the other amino acids, no change was observed.

[3] = target: E. coli Lrp (Escherichia coli, UniProt P0ACJ0); settings: Marasco et al., 1994; cited from earlier work
Chain of E. coli Lrp (P0ACJ0 2-164): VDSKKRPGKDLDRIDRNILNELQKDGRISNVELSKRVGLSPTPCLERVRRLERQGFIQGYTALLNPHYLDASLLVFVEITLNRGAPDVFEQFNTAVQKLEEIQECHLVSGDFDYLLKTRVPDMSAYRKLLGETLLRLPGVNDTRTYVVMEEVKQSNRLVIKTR

| Compound | gel filtration peak that increased ([1]; metabolic intermediate 10 mM) | gel filtration peak that increased ([1]; amino acid 1 mM) | concluded effect on assembling of the protein ([1]; amino acid 1 mM) | change of the FFRP crystal (depolarization) on soaking [2] | effect of leucine on the FFRP assembly [3] | concluded effect on assembling of the protein ([1]; metabolic intermediate 10 mM) |
| --- | --- | --- | --- | --- | --- | --- |
| O=C(O)C(O)COP(=O)(O)O (stereo not drawn) [3-phosphoglyceric acid] | no significant effect |  |  |  |  |  |
| C[C@H](N)C(=O)O [alanine] |  | the fourth peak increased | accelerate disassembling of the protein |  |  |  |
| N=C(N)NCCC[C@H](N)C(=O)O [arginine] |  | the fourth peak increased | accelerate disassembling of the protein |  |  |  |
| CC[C@H](C)[C@H](N)C(=O)O [isoleucine] |  | the second peak increased | accelerates assembling of the protein | the crystals depolarized after several hours |  |  |
| CC(C)C[C@H](N)C(=O)O [leucine] |  | the fourth peak increased | accelerate disassembling of the protein | the crystals depolarized after several hours | disassembling these FFRPs |  |
| O=C(O)CC(O)C(=O)O (stereo not drawn) [malic acid] | the third peak increased |  |  |  |  | stabilizing intermediate assemblies |
| CSCC[C@H](N)C(=O)O [methionine] |  | the fourth peak increased | accelerate disassembling of the protein | the crystals depolarized after several hours |  |  |
| O=C(O)CC(=O)C(=O)O [oxaloacetic acid] | the third peak increased |  |  |  |  | stabilizing intermediate assemblies |
| N[C@@H](Cc1ccccc1)C(=O)O [phenylalanine] |  | the fourth peak increased | accelerate disassembling of the protein |  |  |  |
| CC(=O)C(=O)O [pyruvic acid] | no significant effect |  |  |  |  |  |
| C[C@@H](O)[C@H](N)C(=O)O [threonine] |  | the fourth peak increased | accelerate disassembling of the protein |  |  |  |
| CC(C)[C@H](N)C(=O)O [valine] |  | the third peak increased | stabilizing intermediate assemblies | the crystals depolarized after several hours |  |  |
